Test results taken from US20240376056A1, “PHENYL ACETAMIDE BASED IL-17A MODULATORS AND USES THEREOF” (DiCE Alpha, Inc., priority 2021, published 2024).

Molecular target: T1, IL-17A/A (Homo sapiens, UniProt Q16552)
T1 construct: purchased Genscript Z03228
T1 sequence (Q16552 24-155): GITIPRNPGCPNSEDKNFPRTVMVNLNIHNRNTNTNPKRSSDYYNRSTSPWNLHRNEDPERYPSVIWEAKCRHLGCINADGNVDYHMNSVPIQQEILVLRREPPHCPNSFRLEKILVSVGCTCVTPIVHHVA
Assay: HEK-Blue IL-17A/A inhibition assay (SEAP reporter)
Assay type: cell-based
Conditions: HEK-Blue cells (HEK 293 expressing IL-17RA, IL-17RC, Act1); IL-17A/A stimulation; 20 hours; SEAP read at A630; 4-parameter fit
Outline: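 IC50 from a 4-parameter fit of SEAP signal (Quanti-Blue, A630) after 20 h co-incubation of compound and IL-17A/A. Reporter line: HEK 293 expressing IL-17RA, IL-17RC and Act1 with NFκB-SEAP; compound top final 10, 1 or 0.3 uM, DMSO 0.1% final.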

| SMILES | IC50 |
| --- | --- |
| CC(C(=O)N1CCCN1)c1ccc(NC(=O)[C@@H](NC(=O)c2ccnn2C(C)C)C(C2CC2)C2CC2)c(F)c1 (stereo partly shown) [Compound 235] | > 1 µM |
| CC(C)n1nccc1C(=O)N[C@H](C(=O)Nc1ccc([C@H](C)C(=O)N2CCOC2C(F)(F)F)cc1F)C(C1CC1)C1CC1 (single isomer, unassigned) [Compound 49] | 0.1 to 1 µM |
| Cc1c(F)c(NC(=O)[C@@H](NC(=O)c2conc2C2CC2)C(C2CC2)C2CC2)cc(C(F)(F)F)c1C(C)C(=O)NCC(F)(F)F (stereo partly shown) [Compound 237] | > 1 µM |
| Cc1cc(NC(=O)[C@@H](NC(=O)c2ccnn2C(C)C)C(C2CC2)C2CC2)c(F)cc1[C@@H](C)C(=O)NCC(F)(F)F (single isomer, unassigned) [Compound 99] | > 1 µM |
| CC(C(=O)NCC(F)(F)F)c1cc(F)c(NC(=O)[C@@H](NC(=O)c2ccnn2C(C)C)C(C2CC2)C2CC2)cc1NC(F)(F)F (single isomer, unassigned) [Compound 186] | 0.1 to 1 µM |
| [2H]C([2H])([2H])N(CC(F)(F)F)C(=O)[C@@H](C)c1ccc(NC(=O)[C@@H](NC(=O)c2ccnn2C(C)C)C(C2CC2)C2CC2)c(F)c1 [Compound 23, N-((S)-1,1-dicyclopropyl-3-((2-fluoro-4-((S)-1-((methyl-d3)(2,2,2-trifluoroethyl)amino)-1-oxopropan-2-yl)phenyl)amino)-3-oxopropan-2-yl)-1-isopropyl-1H-pyrazole-5-carboxamide] | 0.1 to 1 µM |
| CC(C)n1nccc1C(=O)N[C@H](C(=O)Nc1ccc([C@H](C)C(=O)N2CCN(C(=O)OC(C)(C)C)CC2C(F)(F)F)cc1F)C(C1CC1)C1CC1 (stereo partly drawn) [Compound 39, tert-butyl 4-((S)-2-(4-((S)-3,3-dicyclopropyl-2-(1-isopropyl-1H-pyrazole-5-carboxamido)propanamido)-3-fluorophenyl)propanoyl)-3-(trifluoromethyl)piperazine-1-carboxylate] | > 1 µM |
| CC(C)n1nccc1C(=O)N[C@H](C(=O)Nc1cc(CCN(C)C)c([C@H](C)C(=O)NCC(F)(F)F)cc1F)C(C1CC1)C1CC1 [Compound 166, N-((S)-1,1-dicyclopropyl-3-((5-(2-(dimethylamino)ethyl)-2-fluoro-4-((S)-1-oxo-1-((2,2,2-trifluoroethyl)amino)propan-2-yl)phenyl)amino)-3-oxopropan-2-yl)-1-isopropyl-1H-pyrazole-5-carboxamide] | 0.1 to 1 µM |
| CCn1nccc1C(=O)N[C@H](C(=O)Nc1ccc([C@H](C)C(=O)N(C)CC(F)(F)F)cc1F)[C@@H]1CCc2ccccc21 [Compound 91, N-((S)-1-((R)-2,3-dihydro-1H-inden-1-yl)-2-((2-fluoro-4-((S)-1-(methyl(2,2,2-trifluoroethyl)amino)-1-oxopropan-2-yl)phenyl)amino)-2-oxoethyl)-1-ethyl-1H-pyrazole-5-carboxamide] | > 1 µM |
| CC(C)n1nccc1C(=O)N[C@H](C(=O)Nc1ccc([C@H](C)C(=O)NCC(N(C)C)C(F)(F)F)cc1F)C(C1CC1)C1CC1 (stereo partly drawn) [Compound 32, N-((2S)-1.1-dicyclopropyl-3-((4-((2S)-1-((2-(dimethylamino)-3,3,3-trifluoropropyl)amino)-1-oxopropan-2-yl)-2-fluorophenyl)amino)-3-oxopropan-2-yl)-1-isopropyl-1H-pyrazole-5-carboxamide] | > 1 µM |
| CC(C(=O)NCC(F)(F)F)c1cc(F)c(NC(=O)[C@@H](NC(=O)c2ccnn2C(C)C)C(C2CC2)C2CC2)cc1Nc1ccccn1 (single isomer, unassigned) [Compound 262] | > 1 µM |
| CC(C(=O)NCC(F)(F)F)c1cc(F)c(NC(=O)[C@@H](NC(=O)c2ccnn2C(C)C)C(C2CC2)C2CC2)cc1Nc1ccccn1 (stereo partly shown) [Compound 254] | > 1 µM |
| CC(C(=O)NCC(F)(F)F)c1cc(F)c(NC(=O)[C@@H](NC(=O)c2ccnn2C(C)C)C(C2CC2)C2CC2)cc1N1CCOCC1 (stereo partly shown) [Compound 232] | > 1 µM |
| CC(C(=O)NCC(F)(F)F)c1cc(F)c(NC(=O)[C@@H](NC(=O)c2ccnn2C(C)C)C(C2CC2)C2CC2)cc1C(F)(F)F (single isomer, unassigned) [Compound 121] | > 1 µM |
| CCn1ncc(F)c1C(=O)N[C@H](C(=O)Nc1ccc([C@H](C)C(=O)NCC(F)(F)F)cc1F)C(C1CC1)C1CC1 [Compound 83, N-((S)-1,1-dicyclopropyl-3-((2-fluoro-4-((S)-1-oxo-1-((2,2,2-trifluoroethyl)amino)propan-2-yl)phenyl)amino)-3-oxopropan-2-yl)-1-ethyl-4-fluoro-1H-pyrazole-5-carboxamide] | > 1 µM |
| CC(C)n1nccc1C(=O)N[C@H](C(=O)Nc1ccc([C@H](C)C(=O)NC2CNCC2(F)F)cc1F)C(C1CC1)C1CC1 (single isomer, unassigned) [Compound 133] | > 1 µM |
| CC(C(=O)NCC(F)(F)F)c1cc(F)c(NC(=O)[C@@H](NC(=O)c2ccnn2C(C)C)C(C2CC2)C2CC2)cc1Cl (single isomer, unassigned) [Compound 108] | 0.1 to 1 µM |
| CC(C(=O)N(C)CC(F)(F)F)c1cc(F)c(NC(=O)[C@@H](NC(=O)c2ccnn2C(C)C)C(C2CC2)C2CC2)cc1CNCCO (stereo partly shown) [Compound 227] | 0.1 to 1 µM |
| CCOc1cc(NC(=O)[C@@H](NC(=O)c2ccnn2C(C)C)C(C2CC2)C2CC2)c(F)cc1C(C)C(=O)NCC(F)(F)F (stereo partly shown) [Compound 194] | 0.1 to 1 µM |
| CC(C)n1nccc1C(=O)N[C@H](C(=O)Nc1ccc([C@H](C)C(=O)N2CCN(CC(F)(F)F)CC2)cc1F)C(C1CC1)C1CC1 [Compound 24, N-((S)-1.1-dicyclopropyl-3-((2-fluoro-4-((S)-1-oxo-1-(4-(2,2,2-trifluoroethyl)piperazin-1-yl)propan-2-yl)phenyl)amino)-3-oxopropan-2-yl)-1-isopropyl-1H-pyrazole-5-carboxamide] | 0.1 to 1 µM |
| CCN(C)C(=O)C(C)c1cc(F)c(NC(=O)[C@@H](NC(=O)c2ccnn2CC)C(C2CC2)C2CC2)cc1C (stereo partly shown) [Compound 243] | 0.1 to 1 µM |
| CC(C(=O)NCC(F)(F)F)c1cc(F)c(NC(=O)[C@@H](NC(=O)c2ccnn2C(C)C)C(C2CC2)C2CC2)cc1Nc1ccccn1 (single isomer, unassigned) [Compound 261] | > 1 µM |
| CC(C)n1nccc1C(=O)N[C@H](C(=O)Nc1ccc([C@H](C)C(=O)N[C@@H](CO)C2CCC2)cc1F)C(C1CC1)C1CC1 [Compound 156] | 0.1 to 1 µM |
| CC(C(=O)NCC(F)(F)F)c1cc(F)c(NC(=O)[C@@H](NC(=O)c2ccnn2C(C)C)C(C2CC2)C2CC2)cc1C#N (single isomer, unassigned) [Compound 115] | 0.1 to 1 µM |

The remaining lines, values ahead:

| IC50 | SMILES |
| --- | --- |
| < 0.1 µM | CC(C(=O)NCC(F)(F)F)c1cc(F)c(NC(=O)[C@@H](NC(=O)c2ccnn2C(C)C)C(C2CC2)C2CC2)cc1C(F)(F)F (single isomer, unassigned) [Compound 120] |
| 0.1 to 1 µM | CCc1nonc1C(=O)N[C@H](C(=O)Nc1cc(C)c(C(C)C(=O)N(C)CC(F)(F)F)cc1F)C1CCC(F)(F)CC1 (stereo partly shown) [Compound 225] |
| < 0.1 µM | Cc1cc(NC(=O)[C@@H](NC(=O)c2ccnn2C(C)C)C(C2CC2)C2CC2)c(F)cc1C(C)C(=O)N1CC(O)CC1C(F)(F)F (single isomer, unassigned) [Compound 199] |
| < 0.1 µM | COCC(C(=O)NCC(F)(F)F)c1ccc(NC(=O)[C@@H](NC(=O)c2ccnn2C(C)C)C(C2CC2)C2CC2)c(F)c1 (single isomer, unassigned) [Compound 105] |
| < 0.1 µM | Cc1cc(NC(=O)[C@@H](NC(=O)c2ccnn2C)C(C2CC2)C2CC2)c(F)cc1C(C)C(=O)N(C)CC(F)(F)F (stereo partly shown) [Compound 223] |
| < 0.1 µM | CC(C)n1nccc1C(=O)N[C@H](C(=O)Nc1ccc([C@H](C)C(=O)NC(C(N)=O)C(F)(F)F)cc1F)C(C1CC1)C1CC1 (stereo partly drawn) [Compound 63, N-((2S)-1-((4-((2S)-1-((3-amino-1,1-trifluoro-3-oxopropan-2-yl)amino)-1-oxopropan-2-yl)-2-fluorophenyl)amino)-3,3-dicyclopropyl-1-oxopropan-2-yl)-1-isopropyl-1H-pyrazole-5-carboxamide] |
| < 0.1 µM | CCn1nccc1C(=O)N[C@H](C(=O)Nc1cc(OC(F)(F)F)c(C(C)C(=O)N(C)CC(F)(F)F)cc1F)C(C1CC1)C1CC1 (stereo partly shown) [Compound 253] |
| < 0.1 µM | CC(C(=O)NCC(F)(F)F)c1cc(F)c(NC(=O)[C@@H](NC(=O)c2ccnn2C(C)C)C(C2CC2)C2CC2)cc1C1CC1 (single isomer, unassigned) [Compound 127] |
| < 0.1 µM | COc1cc(NC(=O)[C@@H](NC(=O)c2ccnn2C(C)C)C(C2CC2)C2CC2)c(F)cc1C(C)C(=O)NCC(F)(F)F (single isomer, unassigned) [Compound 123] |
| < 0.1 µM | CC(C)n1nccc1C(=O)N[C@H](C(=O)Nc1ccc([C@H](C)C(=O)NC(C2CCOC2)C(F)(F)F)cc1F)C(C1CC1)C1CC1 (stereo partly drawn) [Compound 67, N-[(1S)-1-(dicyclopropylmethyl)-2-[2-fluoro-4-[(1S)-1-methyl-2-oxo-2-[(2,2,2-trifluoro-1-tetrahydrofuran-3-yl-ethyl)amino]ethyl]anilino]-2-oxo-ethyl]-2-isopropyl-pyrazole-3-carboxamide] |
| < 0.1 µM | CCn1nccc1C(=O)N[C@H](C(=O)Nc1ccc([C@H](C)C(=O)N(C)CC(F)(F)F)cc1F)[C@H]1CC[C@H](C)CC1 [Compound 71, -ethyl-N-((S)-2-((2-fluoro-4-((S)-1-(methyl(2,2,2-trifluoroethyl)amino)-1-oxopropan-2-yl)phenyl)amino)-1-((1r,4S)-4-methylcyclohexyl)-2-oxoethyl)-1H-pyrazole-5-carboxamide] |
| < 0.1 µM | Cc1cc(NC(=O)C(NC(=O)c2ccnn2C(C)C)C(C2CC2)C2CC2)c(F)cc1C(C)C(=O)N1CC(C)OCC1C(F)(F)F (stereo not shown) [Compound 184] |
| < 0.1 µM | CC(C(=O)N(C)CC(F)(F)F)c1cc(F)c(NC(=O)[C@@H](NC(=O)c2ccnn2C(C)C)C(C2CC2)C2CC2)cc1N(C)C (single isomer, unassigned) [Compound 162] |
